{
  "source": "paper PMC5628898",
  "about": "“Does consumption of red grapefruit juice alter naringenin concentrations in milk produced by breastfeeding mothers?” (PLoS ONE, 2017)",
  "key": {"[1]": {"conditions": "rat, cited from earlier work"}, "[2]": {"test": "Naringenin concentration in milk of breastfeeding mothers on naringenin-restricted diet, before and after 250 ml red grapefruit juice (HPLC after deconjugation)", "format": "in vivo", "conditions": "for k el / Cmax / AUC, mean / AUC, median: human milk; for k el: last points; for Cmax / AUC, mean / AUC, median: n 14; for AUC, mean / AUC, median: trapezoidal method", "excerpt": "Prior to enrollment, each volunteer was informed about the course and aim of the study, and signed the informed consent. They were also provided with oral and written instructions on the diet that disallowed consumption of any naringenin-containing foods and beverages. The volunteers agreed to follow the diet and not to take any vitamin supplements or any other food supplements for the duration of their participation in the study. They followed the diet for a total of 5 days, refraining from eating foods containing larger quantities of naringenin, such as citrus fruits, citrus fruit juices, citrus fruit pulps, tomatoes and tomato-containing food products, aromatic herbs. For the first two days of the study (pre-exposure) the volunteers collected breast milk samples every 12 hours, each in the amount of four to six ml. On the third day of the study they drank a single 250 ml serving of red grapefruit juice (a 250 ml bottle) in the morning on an empty stomach. In this part of the experiment, the volunteers collected breast milk samples at the following time points: 0 (directly before drinking the juice) and 1, 2, 3, 4, 5, 6, 12, 18, 24, 36 hours post-exposure. Milk samples were collected from full breasts. Milk was collected into chemically pure disposable plastic test tubes.\nThe samples were frozen by the volunteers at –20°C, regularly collected from the volunteers by the investigator, transported in a laboratory deep freezer, and frozen to –80°C until analysis. Each sample was labelled with the volunteer's initials and with the date and time of sampling. During the study, we remained in constant telephone contact with the volunteers. A commercial 100% grapefruit juice originating from ecological farms in Israel, in 250 ml bottles, were used in the study. The juice was purchased from a local grocery wholesaler. All the bottles were labelled with the same lot number.\nNaringenin was extracted according to the method described by Song et al. with minor changes. In brief, an aliquot (0.5 ml) of undiluted human milk was defatted two times with 2-ml of hexane. After the lipid removal, 25 μl of L-Ascorbic acid (2.7 mmol/l in ultrapure water), 25 μl of Na2-ethylenediaminetetraacetic acid (2.2 mmol/l in ultrapure water) and 3 ml of pepsin (40 mg/ml in 0.1 N HCl) were added. The samples were incubated in a ThermoMixer C (Eppendorf AG., Germany) for 15 min at 37°C and at 300 rpm. Then, the pH of the sample was adjusted to 4.5 with 1.0 N NaOH and 3.86 kU of β-glucuronidase with sulfatase contaminant was added. Afterwards the samples were incubated for 45 min at 37°C and at 300 rpm in a ThermoMixer C. After deconjugation the potential metabolites (glucuronides and sulfate derivatives) to aglycones using β-glucuronidase/sulfatase treatment, naringenin was extracted with a 3-ml aliquot of ethyl acetate of tree times, dried under vacuum and resuspended in 200 μl of mobile phase B before analysis.\nNaringenin analysis was done on a Shimadzu HPLC system (Kyoto, Japan), equipped with binary pump (LC-20 AD), degasser (DGU-20A3), refrigerated autosampler (SIL-20 AC, set at 8°C), a column oven (CTO-20 AC, 30°C), a diode array detector (SPD-M20A) and a mass spectrometry detector (2010EV). Separations were performed on Kinetex XB-C18 column (100×2.1 mm, 2.6 μm particle size, Phenomenex) at 0.2 ml min^−1 flow rate. The mobile phase consisted of A: 0.4% formic acid in ultrapure water and B: 0.4% formic acid, 0.4% isopropyl alcohol in methanol. The initial conditions of gradient program were set at 98:2 (A/B) followed by a linear gradient to 55:45 (A/B) at 15 min, 20:80 (A/B) at 30 min, 98:2 (A/B) at 35 min and at 40 min, stop. The injection volume was 10 μl. Naringenin was quantified at 287 nm. MS spectra were acquired in positive ion mode over the range of m/z 50–500, both using SCAN and SIM acquisition mode (the set of SIM included 273,25 m/z). […]"}, "[3]": {"system": "organic anion transporting polypeptide (OATP)", "design": "method as in PMID 23794501", "conditions": "cited from earlier work"}, "[4]": {"conditions": "female, human, in vivo, Mean naringenin concentration in human milk"}},
  "note": "Where two headings read alike, the source gives them in different places.",
  "data": [
    {"smiles": "O=C1C[C@@H](c2ccc(O)cc2)Oc2cc(O[C@@H]3O[C@H](CO)[C@@H](O)[C@H](O)[C@H]3O)cc(O)c21", "note": "[7-glucoside]", "values": [
      {"measurement": "Time at which increase in serum naringenin concentration was observed", "setting": "[1]; in vivo", "result": "three"}
    ]},
    {"smiles": "O=C1C[C@@H](c2ccc(O)cc2)Oc2cc(O)cc(O)c21", "note": "[naringenin]", "values": [
      {"measurement": "Range of naringenin concentrations in initial (baseline) milk samples", "setting": "[2]; female, human, in vivo", "result": "420.86 to 1568.89", "unit": "nmol/L"},
      {"measurement": "k el", "setting": "[2]; female, human, in vivo, 250 ml, post-exposure segment, n 11, read-out: Kel (elimination constant), mean (converted)", "result": "3.89e-06", "unit": "s⁻¹"},
      {"measurement": "k el", "setting": "[2]; female, human, in vivo, 250 ml, post-exposure segment, n 11, read-out: Kel (elimination constant), median (converted)", "result": "3.61e-06", "unit": "s⁻¹"},
      {"measurement": "Cmax", "setting": "[2]; female, human, in vivo, 250 ml, post-exposure segment, read-out: Cmax, mean", "result": 908, "unit": "nM"},
      {"measurement": "Cmax", "setting": "[2]; female, human, in vivo, 250 ml, post-exposure segment, read-out: Cmax, median", "result": 714, "unit": "nM"},
      {"measurement": "Mean naringenin concentration in human milk", "setting": "[2]; female, human, in vivo, 4 h", "result": 908.253, "unit": "nmol/L"},
      {"measurement": "Mean naringenin concentration in human milk", "setting": "[2]; female, human, in vivo, 12 h", "result": 868.960, "unit": "nmol/L"},
      {"measurement": "concentration at 0 h", "setting": "[2]; [4]", "result": 674, "unit": "nM"},
      {"measurement": "concentration at 1 h", "setting": "[2]; [4]", "result": 773, "unit": "nM"},
      {"measurement": "concentration at 2 h", "setting": "[2]; [4]", "result": 651, "unit": "nM"},
      {"measurement": "concentration at 3 h", "setting": "[2]; [4]", "result": 649, "unit": "nM"},
      {"measurement": "concentration at 4 h", "setting": "[2]; [4]", "result": 908, "unit": "nM"},
      {"measurement": "concentration at 5 h", "setting": "[2]; [4]", "result": 704, "unit": "nM"},
      {"measurement": "concentration at 6 h", "setting": "[2]; [4]", "result": 650, "unit": "nM"},
      {"measurement": "concentration at 12 h", "setting": "[2]; [4]", "result": 869, "unit": "nM"},
      {"measurement": "concentration at 18 h", "setting": "[2]; [4]", "result": 772, "unit": "nM"},
      {"measurement": "concentration at 24 h", "setting": "[2]; [4]", "result": 728, "unit": "nM"},
      {"measurement": "concentration at 36 h", "setting": "[2]; [4]", "result": 702, "unit": "nM"},
      {"measurement": "concentration at -12 h", "setting": "[2]; [4]", "result": 702, "unit": "nM"},
      {"measurement": "concentration at -24 h", "setting": "[2]; [4]", "result": 844, "unit": "nM"},
      {"measurement": "concentration at -36 h", "setting": "[2]; [4]", "result": 910, "unit": "nM"},
      {"measurement": "concentration at -48 h", "setting": "[2]; [4]", "result": 823, "unit": "nM"},
      {"measurement": "k el", "setting": "[2]; female, human, in vivo, pre-exposure segment, n 5, read-out: Kel (elimination constant), mean (converted)", "result": "5.56e-06", "unit": "s⁻¹"},
      {"measurement": "k el", "setting": "[2]; female, human, in vivo, pre-exposure segment, n 5, read-out: Kel (elimination constant), median (converted)", "result": "5.56e-06", "unit": "s⁻¹"},
      {"measurement": "Cmax", "setting": "[2]; female, human, in vivo, pre-exposure segment, read-out: Cmax, mean", "result": 910, "unit": "nM"},
      {"measurement": "Cmax", "setting": "[2]; female, human, in vivo, pre-exposure segment, read-out: Cmax, median", "result": 762, "unit": "nM"},
      {"measurement": "Cmax", "setting": "[2]; post-exposure segment, read-out: Cmax, mean", "result": 908, "unit": "nM"},
      {"measurement": "AUC, mean", "setting": "[2]; post-exposure, 0 h to 36 h", "result": "27419 (nmol/l)*h"},
      {"measurement": "AUC, median", "setting": "[2]; post-exposure, 0 h to 36 h", "result": "23715 (nmol/l)*h"},
      {"measurement": "AUC, mean", "setting": "[2]; pre-exposure, -36 h to 0 h", "result": "27455 (nmol/l)*h"},
      {"measurement": "AUC, median", "setting": "[2]; pre-exposure, -36 h to 0 h", "result": "26515 (nmol/l)*h"},
      {"measurement": "Inhibition of OATP", "setting": "[3]", "result": "potent inhibitor"},
      {"measurement": "Time at which increase in serum naringenin concentration was observed", "setting": "[1]; after feeding the compound", "result": "three"}
    ]},
    {"smiles": "C[C@@H]1O[C@@H](O[C@H]2[C@H](Oc3cc(O)c4c(c3)O[C@H](c3ccc(O)cc3)CC4=O)O[C@H](CO)[C@@H](O)[C@@H]2O)[C@H](O)[C@H](O)[C@H]1O", "note": "[naringin, 4’, 5,7-trihydroxyflavanone-7-rhamnoglucoside]", "values": [
      {"measurement": "Time at which increase in serum naringenin concentration was observed", "setting": "[1]; after feeding the compound", "result": "ten"}
    ]}
  ]
}
